Assay results reported in patent US12605347B2, “Solid dispersion of ursolic acid and potassium salt” (Indena S.P.A., priority 2019, dated 2026).
Structures can show the parent of a compound that is named as a salt. Where two headings read alike, the source gives them in different places.

Assays:
[1] = low solubility-low permeability; cited from earlier work
[2] = Dissolution test: solubility in simulated gastrointestinal fluids, ursolic acid in the supernatant by HPLC; settings: FaSSGF pH = 1.6; stirred 2 hours at 25° C., supernatant filtered 0.2 μm
Experimental: (§1) Analysis of the solid dispersions and the measure of the solubility in simulated gastrointestinal fluids were performed by HPLC with the instrument and conditions reported below.
(§2) Stirring was stopped and any undissolved solid was let to decant. The supernatant was filtered through a hydrophilic 0.2 μm PTFA filter and analyzed for the content of ursolic acid.
(§3) The same procedure as Test 1 was followed, using 100 mg of ursolic acid instead of the dispersion of example 1.
(§4) The same procedure as Test 1 was followed, using 100 mg ursolic acid potassium salt instead of the dispersion of example 1.

[3] = physchem; settings: 25 °C, thermodynamic from solid
Experimental: as §1, §2, §3, §4

Ursolic acid in solution (pH 1.6) | Ursolic acid in solution (pH 5) [mg/mL] | Ursolic acid in solution (pH 6.5) [mg/mL] | Ursolic acid in solution [2] | solubility thermodynamic at 2 h ([3]; FaSSIF (simulated gastrointestinal fluid), pH 6.5, fassif) [mg/mL] | solubility thermodynamic at 2 h ([3]; FeSSIF (simulated gastrointestinal fluid), pH 5, fessif) [mg/mL] | Compound | class according to the biopharmaceutical classification system (BCS) [1]
<LOD* | 0.083 | 0.032 |  |  |  | 3β-hydroxy-urs-12-en-28-oic acid [ursolic acid] | class IV
 |  |  | <LOD* | 0.154 | 0.318 | C[C@H]1[C@H](C)CC[C@]2(C(=O)O)CC[C@]3(C)C(=CC[C@@H]4[C@@]5(C)CC[C@H](O)C(C)(C)[C@@H]5CC[C@]43C)[C@H]12 [ursolic acid potassium salt] | 
